Results reported in patent EP1311531B1, “STEROID DERIVED ANTIBIOTICS” (Brigham Young University, priority 2000, dated 2002).
In brackets after ≈: the same amount, converted by molar mass.

Experiments:
[1] = system: Gram-negative bacteria; test: MIC and permeabilization measurements, strain not stated (Table 14, Fig. 5)
[2] = Stability (half-lives) in phosphate buffer, decomposition observed via HPLC; assay type: physicochemical; details: 50 mM phosphate buffer, room temperature
Protocol: Compounds 352 - 354 were dissolved in 50 mM phosphate buffered water (pH 2.0, 7.0 or 12.0) at approximately 10 mM concentrations. […] These compounds were used since they contain a chromophore that facilitated monitoring of decomposition by absorption methods common in the HPLC apparatus used.

## C[C@H](CCCN)[C@H]1CC[C@H]2[C@@H]3[C@H](OCCCN)C[C@@H]4C[C@H](OCCCN)CC[C@]4(C)[C@H]3C[C@H](OCCCN)[C@]12C [Compound 135]
[1]; in words, text on Fig. 5
  MBC: relatively high
  MIC: relatively high

## C[C@H](CCCO)[C@H]1CC[C@H]2[C@@H]3[C@H](N)C[C@@H]4C[C@H](N)CC[C@]4(C)[C@H]3C[C@H](N)[C@]12C [Compound 206]
[1]; in words
  activity as a permeabilizer: ineffective as a permeabilizer

## CC(CCCO)C1CCC2C3C(NC(=O)C(N)CCCCN)CC4CC(NC(=O)C(N)CCCCN)CCC4(C)C3CC(NC(=O)C(N)CCCCN)C12C (stereo not shown) [Compound 209c]
[1]; Table 14
  MIC: 85 µg/mL (≈ 110 µM)
  a: concentration of cholic acid derivatives required to lower MIC of erythromycin to 1 µg/ML: 45 µg/mL
  b: concentration of cholic acid derivatives required to lower MIC of novobiocin to 1 µg/ML: 60 µg/mL

## C[C@H](CCCO)[C@H]1CC[C@H]2[C@@H]3[C@H](NC(=O)CCCCCN)C[C@@H]4C[C@H](NC(=O)CCCCCN)CC[C@]4(C)[C@H]3C[C@H](NC(=O)CCCCCN)[C@]12C [Compound 211]
[1]; in words
  activity as a permeabilizer: less active than 209c as a permeabilizer

## C[C@H](CCCN(C)Cc1ccccc1)[C@H]1CC[C@H]2[C@@H]3[C@H](OC(=O)CCCN)C[C@@H]4C[C@H](OC(=O)CCCN)CC[C@]4(C)[C@H]3C[C@H](OC(=O)CCCN)[C@]12C [Compound 354]
[2]; pH 2.0, approximately 10 mM
  stabilities (half-lives) pH 2.0: 33 days
[2]; pH 7.0, approximately 10 mM
  stabilities (half-lives) pH 7.0: 12 days
[2]; pH 12.0, approximately 10 mM
  stabilities (half-lives) pH 12.0: <30 minutes
